Laboratory results as given in patent US20160060260A1, “BROMODOMAIN INHIBITORS FOR TREATING DISEASE” (Board of Regents, The University of Texas System, priority 2014, published 2016).

The molecules below were run against T1, Recombinant human His-tagged Trim24-PHD-bromodomain (Homo sapiens, UniProt O15164) (assay: Trim24 AlphaScreen Assay). Details: 5 nM Trim24 protein, 15 nM biotinylated H3K23ac (1-33aa) peptide.
T1 construct: Recombinant human His-tagged Trim24-PHD-bromodomain (produced in-house); made in house
T1 sequence (O15164 824-1006 limits assumed): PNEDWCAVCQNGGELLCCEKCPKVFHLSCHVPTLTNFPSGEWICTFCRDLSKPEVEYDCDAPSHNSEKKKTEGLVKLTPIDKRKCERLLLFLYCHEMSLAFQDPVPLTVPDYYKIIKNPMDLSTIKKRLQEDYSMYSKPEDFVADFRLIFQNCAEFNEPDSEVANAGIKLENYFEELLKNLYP
Assay type: binding
Description: Recombinant human His-tagged Trim24-PHD-bromodomain (produced in-house), biotinylated H3K23ac (1-33aa) peptide (AnaSpec, Inc.), and test compound were added to a 384-well OptiPlate (Perkin Elmer) and incubated at room temperature for one hour. The assay buffer consisted of 50 mM Hepes, pH 7.5, 100 mM NaCl, and 0.12 mM Triton X-100.
Streptavidin donor beads and nickel chelate acceptor beads, both from a Perkin Elmer AlphaScreen Histidine Detection Kit, were then added to the Optiplate to a final concentration of 10 ug/mL each. Following a 2 hour incubation at room temperature, the microplate was read on an Envision Plate Reader (Perkin Elmer). Percent of control (POC) values were calculated from the following formula:
POC=[sample signal-average background signal]/[average maximum signal−average background signal]*100
The average maximum signal was obtained from wells containing all assay components except test compound. The average background signal pertained to wells with all assay components except Trim24 and test compound. IC50 values were calculated using a four-parameter logistic curve fit.

| Compound | IC50 |
| --- | --- |
| Cc1nc(S(=O)(=O)Nc2cc3c(cc2Oc2cccc(OCc4ccccc4)c2)n(C)c(=O)n3C)cn1C [Example 26, N-(6-(3-(benzyloxy)phenoxy)-1,3-dimethyl-2-oxo-2,3-dihydro-1H-benzo[d]imidazol-5-yl)-1,2-dimethyl-1H-imidazole-4-sulfonamide] | 100 to 1000 nM |
| Cc1c(S(=O)(=O)Nc2cc3c(cc2Oc2cc(OCCCCCCN)cc(OCC(F)(F)F)c2)n(C)c(=O)n3C)cnn1C [Example 200, N-(6-(3-((6-aminohexyl)oxy)-5-(2,2,2-trifluoroethoxy)phenoxy)-1,3-dimethyl-2-oxo-2,3-dihydro-1H-benzo[d]imidazol-5-yl)-1,5-dimethyl-1H-pyrazole-4-sulfonamide] | 1 to 10 nM |
| CCCOc1cccc(Oc2cc3c(cc2NS(=O)(=O)c2cccc(OC)c2)n(C)c(=O)n3C)c1 [Example 170, N-(1,3-dimethyl-2-oxo-6-(3-propoxyphenoxy)-2,3-dihydro-1H-benzo[d]imidazol-5-yl)-3-methoxybenzenesulfonamide] | 100 to 1000 nM |
| C=C(C)COc1cccc(Oc2cc3c(cc2NS(=O)(=O)c2cn(C)cn2)n(C)c(=O)n3C)c1 [Example 70, N-(1,3-dimethyl-6-(3-((2-methylallyl)oxy)phenoxy)-2-oxo-2,3-dihydro-H-benzo[d]imidazol-5-yl)-1-methyl-1H-imidazole-4-sulfonamide] | 10 to 100 nM |
| Cn1c(=O)n(C)c2cc(Oc3cccc(OCc4ccccc4)c3)c(NS(=O)(=O)c3ccc(F)cc3)cc21 [Example 15] | > 1000 nM |
| CCCOc1cc(OCCCCN(C)C)cc(Oc2cc3c(cc2NS(=O)(=O)c2cnn(C)c2C)n(C)c(=O)n3C)c1 [Example 217, N-(6-(3-(4-(dimethylamino)butoxy)-5-propoxyphenoxy)-1,3-dimethyl-2-oxo-2,3-dihydro-1H-benzo[d]imidazol-5-yl)-1,5-dimethyl-1H-pyrazole-4-sulfonamide] | 10 to 100 nM |
| CCCOc1cc(OCCCOC)cc(Oc2cc3c(cc2NS(=O)(=O)c2cn4c(n2)CCCC4)n(C)c(=O)n3C)c1 [Example 140, N-(6-(3-(3-methoxypropoxy)-5-propoxyphenoxy)-1,3-dimethyl-2-oxo-2,3-dihydro-1H-benzo[d]imidazol-5-yl)-5,6,7,8-tetrahydroimidazo[1,2-a]pyridine-2-sulfonamide] | 10 to 100 nM |
| CCCOc1ccc(OC)c(Oc2cc3c(cc2NS(=O)(=O)c2cn(C)cn2)n(C)c(=O)n3C)c1 [Example 113, N-(6-(2-methoxy-5-propoxyphenoxy)-1,3-dimethyl-2-oxo-2,3-dihydro-1H-benzo[d]imidazol-5-yl)-1-methyl-1H-imidazole-4-sulfonamide] | 100 to 1000 nM |
| CCCOc1cc(OCCCOC)cc(Oc2cc3c(cc2NS(=O)(=O)c2cccc(CC)c2)n(C)c(=O)n3C)c1 [Example 160, 3-ethyl-N-(6-(3-(3-methoxypropoxy)-5-propoxyphenoxy)-1,3-dimethyl-2-oxo-2,3-dihydro-1H-benzo[d]imidazol-5-yl)benzenesulfonamide] | 100 to 1000 nM |
| CCCOc1cc(OCCCCCCN)cc(Oc2cc3c(cc2NS(=O)(=O)c2cn(C)c(C)n2)n(C)c(=O)n3C)c1 [Example 182, N-(6-(3-((6-aminohexyl)oxy)-5-propoxyphenoxy)-1,3-dimethyl-2-oxo-2,3-dihydro-1H-benzo[d]imidazol-5-yl)-1,2-dimethyl-1H-imidazole-4-sulfonamide] | 10 to 100 nM |
| CCCOc1cc(C#N)cc(Oc2cc3c(cc2NS(=O)(=O)c2cn(C)cn2)n(C)c(=O)n3C)c1 [Example 108, N-(6-(3-cyano-5-propoxyphenoxy)-1,3-dimethyl-2-oxo-2,3-dihydro-1H-benzo[d]imidazol-5-yl)-1-methyl-1H-imidazole-4-sulfonamide] | 10 to 100 nM |
| CCCOc1cc(OCCCOC)cc(Oc2cc3c(cc2NS(=O)(=O)C2CC2)n(C)c(=O)n3C)c1 [Example 150, N-(6-(3-(3-methoxypropoxy)-5-propoxyphenoxy)-1,3-dimethyl-2-oxo-2,3-dihydro-1H-benzo[d]imidazol-5-yl)cyclopropanesulfonamide] | 100 to 1000 nM |
| COCCS(=O)(=O)Nc1cc2c(cc1Oc1cccc(OCC(F)(F)F)c1)n(C)c(=O)n2C [Example 89, N-(1,3-dimethyl-2-oxco-6-(3-(2,2,2-trifluoroethoxy)phenoxy)-2,3-dihydro-1H-benzo[d]imidazol-5-yl)-2-methoxyethane-1-sulfonamide] | 100 to 1000 nM |
| CC(C)c1cccc(S(=O)(=O)Nc2cc3c(cc2Oc2cccc(OCc4ccccc4)c2)n(C)c(=O)n3C)c1 [Example 32, N-(6-(3-(benzyloxy)phenoxy)-1,3-dimethyl-2-oxo-2,3-dihydro-1H-benzo[d]imidazol-5-yl)-3-isopropylbenzenesulfonamide] | > 1000 nM |
| CCCOc1ccc(F)c(Oc2cc3c(cc2NS(=O)(=O)c2cccnc2)n(C)c(=O)n3C)c1 [Example 135, N-(6-(2-fluoro-5-propoxyphenoxy)-1,3-dimethyl-2-oxo-2,3-dihydro-1H-benzo[d]imidazol-5-yl)pyridine-3-sulfonamide] | 10 to 100 nM |
| Cc1nc(S(=O)(=O)Nc2cc3c(cc2Oc2cccc(OCC4CC4)c2)n(C)c(=O)n3C)cn1C [Example 58, N-(6-(3-(cyclopropylmethoxy)phenoxy)-1,3-dimethyl-2-oxo-2,3-dihydro-1H-benzo[d]imidazol-5-yl)-1,2-dimethyl-1H-imidazole-4-sulfonamide] | 10 to 100 nM |
| COc1ccc(S(=O)(=O)Nc2cc3c(cc2Oc2cccc(OCc4ccccn4)c2)n(C)c(=O)n3C)cc1OC [Example 29, N-(1,3-dimethyl-2-oxo-6-(3-(pyridin-2-ylmethoxy)phenoxy)-2,3-dihydro-1H-benzo[d]imidazol-5-yl)-3,4-dimethoxybenzenesulfonamide] | 100 to 1000 nM |
| CCCOc1cc(OCCCCN2CC(O)C2)cc(Oc2cc3c(cc2NS(=O)(=O)c2ccc(OC)c(OC)c2)n(C)c(=O)n3C)c1 [Example 248, N-(6-{3-[4-(3-hydroxyazetidin-1-yl)butoxy]-5-propoxyphenoxy}-1,3-dimethyl-2-oxo-2,3-dihydro-1H-1,3-benzodiazol-5-yl)-3,4-dimethoxybenzene-1-sulfonamide] | 10 to 100 nM |
| C=CCOc1cccc(Oc2cc3c(cc2NS(=O)(=O)c2cccc4ccccc24)n(C)c(=O)n3C)c1 [Example 142, N-(6-(3-(allyloxy)phenoxy)-1,3-dimethyl-2-oxo-2,3-dihydro-1H-benzo[d]imidazol-5-yl)naphthalene-1-sulfonamide] | 100 to 1000 nM |
| CCCOc1cccc(Oc2cc3c(cc2NS(=O)(=O)c2cccc4c2OCCO4)n(C)c(=O)n3C)c1 [Example 172, N-(1,3-dimethyl-2-oxo-6-(3-propoxyphenoxy)-2,3-dihydro-1H-benzo[d]imidazol-5-yl)-2,3-dihydrobenzo[b][1,4]dioxine-5-sulfonamide] | 100 to 1000 nM |
| Cn1cnc(S(=O)(=O)Nc2cc3c(cc2Oc2cccc(OCC(F)(F)F)c2)n(C)c(=O)n3C)c1 [Example 71, N-(1,3-dimethyl-2-oxo-6-(3-(2,2,2-trifluoroethoxy)phenoxy)-2,3-dihydro-1H-benzo[d]imidazol-5-yl)-1-methyl-1H-imidazole-4-sulfonamide] | 10 to 100 nM |
| Cn1cc(S(=O)(=O)Nc2cc3c(cc2Oc2cccc(OCC4CC4)c2)n(C)c(=O)n3C)cn1 [Example 101, N-(6-(3-(cyclopropylmethoxy)phenoxy)-1,3-dimethyl-2-oxo-2,3-dihydro-1H-benzo[d]imidazol-5-yl)-1-methyl-1H-pyrazole-4-sulfonamide] | 10 to 100 nM |
